Experimental findings from US20190192697A1, “CHEMICAL PROBES OF LYSYL OXIDASK-LIKE 2 AND USES THEREOF” (PHARMAKEA, INC., priority 2016, published 2019) are described below.

Where a name gives a salt, the structure may show the parent alone. Where only a bound is given, the exact number is not on record here.

Data set [1] deals with T1, LOXL2 (Homo sapiens, UniProt Q9Y4K0).
T1 sequence (Q9Y4K0 26-774): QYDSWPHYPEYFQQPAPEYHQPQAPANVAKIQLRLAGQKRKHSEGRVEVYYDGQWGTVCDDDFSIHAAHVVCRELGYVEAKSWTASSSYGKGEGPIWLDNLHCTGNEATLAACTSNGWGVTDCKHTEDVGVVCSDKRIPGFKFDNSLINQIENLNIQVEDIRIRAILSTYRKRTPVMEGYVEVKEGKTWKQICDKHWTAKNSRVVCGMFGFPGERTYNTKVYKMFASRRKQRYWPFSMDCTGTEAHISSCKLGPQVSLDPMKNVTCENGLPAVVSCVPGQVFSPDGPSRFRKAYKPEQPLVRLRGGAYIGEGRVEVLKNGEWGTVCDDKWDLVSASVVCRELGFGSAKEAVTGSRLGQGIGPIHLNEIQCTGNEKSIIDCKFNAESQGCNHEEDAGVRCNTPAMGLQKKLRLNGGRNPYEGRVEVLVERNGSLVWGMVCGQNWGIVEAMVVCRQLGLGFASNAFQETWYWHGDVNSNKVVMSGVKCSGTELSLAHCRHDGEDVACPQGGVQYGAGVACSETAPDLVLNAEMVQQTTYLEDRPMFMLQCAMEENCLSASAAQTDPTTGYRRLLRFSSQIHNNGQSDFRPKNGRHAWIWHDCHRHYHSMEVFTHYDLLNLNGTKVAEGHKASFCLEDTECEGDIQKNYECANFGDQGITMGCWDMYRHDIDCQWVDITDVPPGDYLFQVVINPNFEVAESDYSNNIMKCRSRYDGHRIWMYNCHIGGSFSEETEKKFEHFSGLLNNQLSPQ
Kind of data set: Human LOXL2 amine oxidase activity assay (Amplex Red). The data set is classed as biochemical. Details: expressed in transfected cells; host or cells: CHO cells stably expressing human LOXL2; 10-20x concentrated conditioned media. The settings on record: concentrated conditioned media from CHO cells expressing human LOXL2; 2 h at 37° C. pre-incubation. The method, then: LOXL2 amine oxidase activity is evaluated by measuring Amplex Red fluorescence using 10-20× concentrated conditioned media from CHO cells stably expressing human LOXL2. To assay for amine oxidase activity, 10 μL of the concentrated conditioned media is incubated with 2 μL of test compound in DMSO and 73 μL Assay Buffer (50 mM Borate Buffer, pH8) for 2 h at 37° C. After the 2 h incubation, 5 μL of 10 mM 1,5-diaminopentane (DAP) diluted in Assay Buffer and 10 μL of Amplex Red Mix (8.5 μL Assay Buffer+0.5 μL of 10 mM Amplex Red+1 μL of 500 U/mL Horseradish Peroxidase) are added and the plate mixed and immediately placed on the FlexStaion for fluorescence measurements. Fluorescence is read in kinetic mode every 2 min for 1 hour at excitation=544 nm and emission=590 nm. The amine oxidase activity is calculated from the slope of the linear portion of the curve.

Data set [2] is described as follows: Compound tissue distribution studies with 18F-PET imaging. In kind it is in vivo. The settings on record: 30-50 μCi intravenously, PET imaged 90-120 minutes, naïve or bleomycin-instilled mice. The method, then:
In these studies, naïve or bleomycin-instilled mice were injected with 30-50 μCi of Compound 1-13 (^18F-labeled) intravenously and were PET imaged for 90-120 minutes following injection of the radiolabel. These animals were then sacrificed at 2.5 hours post-administration of the ^18F-labeled Compound 1-13 and tissues and blood were analyzed by scintillation counting to determine concentration of radioactivity remaining.
To determine specific binding, a subset of mice were administered a blocking dose of Compound 1-13a or vehicle (delivered at 60 mg/kg PO) at a suitable time point prior to the PET-ligand injection, such as 2.5-4 h prior.

The target of data set [3] is T1, LOXL2. Kind of data set: Erenna-based fluorescence magnetic bead assay for free/unbound LOXL2. In kind it is binding. The settings on record: 34 nM Compound 1-2, 15 hours at room temperature.
Experimental: Following the incubation, 10 μg of streptavidin-coated magnetic microparticles (MPs) are added to each well and incubated for 30 min-2 hours at room temperature with shaking. The MPs are washed once using magnetic separation and 20 μL of a fluorescently conjugated anti-LOXL2 antibody is added to each well (for example, R&D Systems anti-LOXL2 Goat IgG polyclonal antibody conjugated to AlexaFluor 647) and incubated for 30 min-2 hours at room temperature with shaking. The MPs are washed four times with magnetic separation and transferred to a new plate. All liquid is aspirated from the plate and elution buffer added and incubated for 10 minutes at room temperature with shaking. The eluate is transferred to a 384 well assay plate containing neutralization buffer, sealed and read on Erenna®.

As for `CC1(C)C(/C=C/C(=C/C=C2\N(CCCS(=O)(=O)O)c3ccc4c(S(=O)(=O)O)cc(S(=O)(=O)O)cc4c3C2(C)C)c2cccc(CCCCC(=O)NCCCCCCNC(=O)c3cccc(Oc4cc(CN)cc(C(F)(F)F)n4)c3)c2)=[N+](CCCS(=O)(=O)O)c2ccc3c(S(=O)(=O)O)cc(S(=O)(=O)O)cc3c21` [Compound 1-22, 3-(2-((1E,3Z,5Z)-3-(3-(5-((6-(3-((4-(Aminomethyl)-6-(trifluoromethyl)pyridin-2-yl)oxy)benzamido)hexyl)amino)-5-oxopentyl)phenyl)-5-(1,1-dimethyl-6,8-disulfo-3-(3-sulfopropyl)-1H-benzo[e]indol-2(3H)-ylidene)penta-1,3-dien-1-yl)-1,1-dimethyl-6,8-disulfo-1H-benzo[e]indol-3-ium-3-yl)propane-1-sulfonate trifluoroacetate], in data set [1], the IC50 is greater than 1000 nM.
Take `CN1/C(=C/C=C/C=C/C2=[N+](CCCCCC(=O)NCCCn3cc(CCCCNC(=O)c4cccc(Oc5cc(CN)cc(C(F)(F)F)n5)c4)nn3)c3ccccc3C2(C)C)C(C)(C)c2ccccc21` [Compound 1-4, 1-(6-((3-(4-(4-(3-((4-(Aminomethyl)-6-(trifluoromethyl)pyridin-2-yl)oxy)benzamido)butyl)-1H-1,2,3-triazol-1-yl)propyl)amino)-6-oxohexyl)-3,3-dimethyl-2-((1E,3E,5E)-5-(1,3,3-trimethylindolin-2-ylidene)penta-1,3-dien-1-yl)-3H-indol-1-ium chloride hydrochloride]: the IC50 in data set [1] is less than 300 nM.
Consider `Cc1cc(=O)oc2cc(NC(=O)c3cccc(Oc4cc(CN)cc(C(F)(F)F)n4)c3)ccc12` [Compound 1-5, 3-((4-(Aminomethyl)-6-(trifluoromethyl)pyridin-2-yl)oxy)-N-(4-methyl-2-oxo-2H-chromen-7-yl)benzamide hydrochloride], for which the IC50 in data set [1] was less than 300 nM.
Same read-out and setting: then `NCc1cc(Oc2cccc(C(=O)NCCCCCNC(=O)CCCC[C@@H]3SC[C@@H]4NC(=O)N[C@@H]43)c2)nc(C(F)(F)F)c1` [Compound 1-1, 3-((4-(Aminomethyl)-6-(trifluoromethyl)pyridin-2-yl)oxy)-N-(5-(5-((3aS,4S,6aR)-2-oxohexahydro-1H-thieno[3,4-d]imidazol-4-yl)pentanamido)pentyl)benzamide hydrochloride], with less than 300 nM; and `NCc1cc(Oc2cccc(C(=O)NCCNC(=O)CCCCCNC(=O)CCCCCNC(=O)CCCC[C@@H]3SC[C@@H]4NC(=O)N[C@@H]43)c2)nc(C(F)(F)F)c1` [Compound 1-20, 3-((4-(Aminomethyl)-6-(trifluoromethyl)pyridin-2-yl)oxy)-N-(2-(6-(6-(5-((3aS,4S,6aR)-2-oxohexahydro-1H-thieno[3,4-d]imidazol-4-yl)pentanamido)hexanamido)hexanamido)ethyl)benzamide hydrochloride], with less than 300 nM; and `NCc1cc(Oc2cccc(C(=O)NCCOCCOCCOCCNC(=O)CCCC[C@@H]3SC[C@@H]4NC(=O)N[C@@H]43)c2)nc(C(F)(F)F)c1` [Compound 1-19, 3-((4-(Aminomethyl)-6-(trifluoromethyl)pyridin-2-yl)oxy)-N-(13-oxo-17-((3aS,4S,6aR)-2-oxohexahydro-1H-thieno[3,4-d]imidazol-4-yl)-3,6,9-trioxa-12-azaheptadecyl)benzamide hydrochloride], with less than 300 nM.
`NCc1cc(Oc2cccc(C(=O)N3C[C@@H](O)[C@H]([18F])C3)c2)nc(C(F)(F)F)c1` [Compound 1-13, (3-((4-(Aminomethyl)-6-(trifluoromethyl)pyridin-2-yl)oxy)phenyl)((3R,4R)-3-^18fluoro-4-hydroxypyrrolidin-1-yl)methanone hydrochloride]: the “tissue distribution of the 18F-labeled ligand” value in data set [2] is “Highest initial concentrations of ligand were observed in liver, kidney and lung”.
Regarding `Cl.NCc1cc(Oc2cccc(C(=O)NCCOCCOCCOCCOCCOCCOCCOCCOCCOCCOCCOCCNC(=O)CCCC[C@@H]3SC[C@@H]4NC(=O)N[C@@H]43)c2)nc(C(F)(F)F)c1` [Compound 1-2, 3-((4-(Aminomethyl)-6-(trifluoromethyl)pyridin-2-yl)oxy)-N-(37-oxo-41-((3aS,4S,6aR)-2-oxohexahydro-1H-thieno[3,4-d]imidazol-4-yl)-3,6,9,12,15,18,21,24,27,30,33-undecaoxa-36-azahentetracontyl)benzamide hydrochloride], the “signal of free/unbound LOXL2 versus LOXL2 concentration” value in data set [3] was “linear increase in signal of free/unbound LOXL2 up to 500 pg/mL”. In data set [1], this molecule yielded an IC50 of less than 300 nM.
In data set [1], `CN1/C(=C/C=C/C2=[N+](CCCCCC(=O)NCCCn3cc(CCCCNC(=O)c4cccc(Oc5cc(CN)cc(C(F)(F)F)n5)c4)nn3)c3ccccc3C2(C)C)C(C)(C)c2ccccc21` [Compound 1-3, 1-(6-((3-(4-(4-(3-((4-(Aminomethyl)-6-(trifluoromethyl)pyridin-2-yl)oxy)benzamido)butyl)-1H-1,2,3-triazol-1-yl)propyl)amino)-6-oxohexyl)-3,3-dimethyl-2-((1E,3E)-3-(1,3,3-trimethylindolin-2-ylidene)prop-1-en-1-yl)-3H-indol-1-ium chloride hydrochloride] gave an IC50 of less than 300 nM.
The same measure, in the same setting: then `CN(C)c1cccc2c(S(=O)(=O)Nc3cccc(Oc4cc(CN)cc(C(F)(F)F)n4)c3)cccc12` [Compound 1-6, N-(3-((4-(Aminomethyl)-6-(trifluoromethyl)pyridin-2-yl)oxy)phenyl)-5-(dimethylamino)naphthalene-1-sulfonamide hydrochloride], with 300 to 1000 nM.

As usually defined, the IC50 is the midpoint of a concentration-inhibition curve. A low value points to greater potency in that assay.
